Patent US20230159597A1 (priority 2020, published 2023)
[ ]: non-standard residue; d: D form. The star is where a group is joined. X1 = CC(C)CCC[C@@H](C)[C@H]1CC[C@H]2[C@@H]3CC=C4C[C@@H](OC(=O)C*)CC[C@]4(C)[C@H]3CC[C@]12C; PEG4 = NCCOCCOCCOCCOCCC(=O)O

How the values were obtained:
SARS-CoV-2 = format: cell-based
SARS CoV-2 glycoprotein = SARS CoV-2 glycoprotein (Severe acute respiratory syndrome coronavirus 2, UniProt P0DTC2); assay: cell-based

Row | Molecule | IC50 (ZEBOV Gueckedou C07) | Max % inh (ZEBOV Gueckedou C07) | IC50 (Bundibugyo EBOV) | Max % inh (Bundibugyo EBOV) | IC50 (ZEBOV Mayinga) | Max % inh (ZEBOV Mayinga) | reduction in SARS-CoV-2 infection (SARS-CoV-2) | IC90 (SARS CoV-2 glycoprotein)
1 | CC[C@H](C)[C@H](NC(=O)CNC(=O)[C@H](CO)NC(=O)CNC(=O)[C@H](CCCNC(=N)N)NC(=O)[C@H](CCCNC(=N)N)NC(=O)[C@H](CCCNC(=N)N)NC(=O)[C@H](CCC(N)=O)NC(=O)[C@H](CCCNC(=N)N)NC(=O)[C@H](CCCNC(=N)N)NC(=O)[C@H](CCCCN)NC(=O)[C@H](CCCCN)NC(=O)[C@H](CCCNC(=N)N)NC(=O)CNC(=O)[C@H](Cc1ccc(O)cc1)NC(C)=O)C(=O)N[C@@H](CCC(=O)O)C(=O)N1CCC[C@H]1C(=O)N[C@@H](Cc1c[nH]cn1)C(=O)N[C@@H](CC(=O)O)C(=O)N[C@@H](Cc1c[nH]c2ccccc12)C(=O)N[C@H](C(=O)N[C@@H](CCCCN)C(=O)N[C@@H](CC(N)=O)C(=O)N[C@H](C(=O)N[C@H](C(=O)N[C@@H](CC(=O)O)C(=O)N[C@@H](CCCCN)C(=O)N[C@H](C(=O)N[C@@H](CC(=O)O)C(=O)N[C@@H](CCC(N)=O)C(=O)N[C@H](C(=O)N[C@H](C(=O)N[C@@H](Cc1c[nH]cn1)C(=O)N[C@@H](CC(=O)O)C(=O)N[C@@H](Cc1ccccc1)C(=O)N[C@H](C(=O)N[C@@H](CC(=O)O)C(=O)N[C@@H](CCCCN)C(=O)NCC(=O)N[C@@H](CO)C(=O)NCC(=O)N[C@@H](CO)C(=O)NCC(=O)N[C@@H](CSCC(=O)NCCOCCOCCOCCOCCC(=O)O[C@H]1CC[C@@]2(C)C(=CC[C@H]3[C@@H]4CC[C@H]([C@H](C)CCCC(C)C)[C@@]4(C)CC[C@@H]32)C1)C(N)=O)C(C)C)[C@@H](C)CC)[C@@H](C)CC)[C@@H](C)CC)[C@@H](C)O)[C@@H](C)CC)[C@@H](C)O [TAT-EBO-PEG4-Chol] | 20 nM | 97.5% | 70 nM | 98.5% | 50 nM | 97.9% |  | 
2 | Ac-SLTQINTTLLNLEYEMKKLEEVVKKLEESYIDLKELGSG[PEG4]C(X1)-NH2 [MERS lipid-peptide] |  |  |  |  |  |  | 100% | 200 nM
3 | CC[C@H](C)[C@H](NC(=O)CNC(=O)[C@H](CO)NC(=O)CNC(=O)[C@H](CCCNC(=N)N)NC(=O)[C@H](CCCNC(=N)N)NC(=O)[C@H](CCCNC(=N)N)NC(=O)[C@H](CCC(N)=O)NC(=O)[C@H](CCCNC(=N)N)NC(=O)[C@H](CCCNC(=N)N)NC(=O)[C@H](CCCCN)NC(=O)[C@H](CCCCN)NC(=O)[C@H](CCCNC(=N)N)NC(=O)CNC(=O)[C@H](Cc1ccc(O)cc1)NC(C)=O)C(=O)N[C@@H](CCC(=O)O)C(=O)N1CCC[C@H]1C(=O)N[C@@H](Cc1c[nH]cn1)C(=O)N[C@@H](CC(=O)O)C(=O)N[C@@H](Cc1c[nH]c2ccccc12)C(=O)N[C@H](C(=O)N[C@@H](CCCCN)C(=O)N[C@@H](CC(N)=O)C(=O)N[C@H](C(=O)N[C@H](C(=O)N[C@@H](CC(=O)O)C(=O)N[C@@H](CCCCN)C(=O)N[C@H](C(=O)N[C@@H](CC(=O)O)C(=O)N[C@@H](CCC(N)=O)C(=O)N[C@H](C(=O)N[C@H](C(=O)N[C@@H](Cc1c[nH]cn1)C(=O)N[C@@H](CC(=O)O)C(=O)N[C@@H](Cc1ccccc1)C(=O)N[C@H](C(=O)N[C@@H](CC(=O)O)C(=O)N[C@@H](CCCCN)C(=O)NCC(=O)N[C@@H](CO)C(=O)NCC(=O)N[C@@H](CO)C(=O)NCC(=O)N[C@@H](CSCC(=O)NCCOCCOCCOCCOCCC(=O)Oc1c(C)c(C)c2c(c1C)CC[C@@](C)(CCC[C@H](C)CCC[C@H](C)CCCC(C)C)O2)C(N)=O)C(C)C)[C@@H](C)CC)[C@@H](C)CC)[C@@H](C)CC)[C@@H](C)O)[C@@H](C)CC)[C@@H](C)O [TAT-EBO-PEG4-Toco] | 100 nM | 100% | 310 nM | 100% | 700 nM | 96.9% |  | 
